In one series the test system is HEK-293 cells. As to the kind of experiment: cDNA microarray analysis of cells expressing intracellular PGI2 (PGISwt vs inactive PGISC441A). It counts as cell-based, human. Conditions: ratio of PGISwt to PGISC441A, 36 h. The method, then:
HEK-293 cells (1.2×10^4 cells/cm^2) were transfected with expression vector for PGISwt or PGISC441A using LipofectAMINE (Invitrogen) and maintained in DMEM containing 10% FBS, 2 mM L-glutamine, 100 U/ml penicillin and […] streptomycin for 36 h. Poly(A+) mRNA (1.5 μg) was prepared from3×10^6 cells using Isogen (Nippon Gene) and Oligotex-dT30 super mRNA purification kit (Takara, Tokyo, Japan). Samples were analyzed by gene expression microarray (GEM) DNA tip containing 9,182 human cDNA clones (HUMAN UniGEM V Ver2.0, IncyteGenomics, Palo Alto, Calif.). Conversion of poly(A+) mRNA to cDNA with incorporation of Cy3- or Cy5-labeled deoxynucleotide-triphosphates (dNTPs), hybridization to arrays coated on glass, quality control and normalization were performed by IncyteGenomics. All data analyses were performed using an average fold change of two assays, and data were expressed as the ratio of PGISwt to PGISC441A.
In order to identify the downstream mediators of intracellular PGI2-PPARδ signaling pathway, a cDNA microarray analysis of human cells expressing intracellular PGI2 was performed. Based on precious studies of the inventors (Hatae et al., J. Biol. Chem. (2001) 276: 46260-7), a human embryonic kidney cell line (HEK-293) transfected with the expression vector for wild-type PGIS (PGISwt) was used to achieve endogenous expression of intracellular PGI2.

In the next series the test system is COX-2 gene. The experiment in a line: RT-PCR analysis of COX-2 mRNA. It counts as cell-based, human. Conditions: HUVEC, combination of TNF-α (1 ng/ml) and IL-1β (20 ng/ml), FIG. 5. The procedure: For analysis of IL-13, human vascular endothelial cells (1.2×10^4 cells/cm^2) were stimulated with cPGI (10 μM) for 12 h, and total RNA was prepared from stimulated cells with Isogen (Nippon Gene). For analysis of COX-2, human vascular endothelial cells (1.2×10^4 cells/cm^2) were pretreated with TNF-α (1 ng/ml) and IL-1b (20 ng/ml) for 1 h, and then treated with cPGI (0, 10 μM), anti-human IL-13 monoclonal antibody (0, 0.5 μg/ml) and control IgG (0, 0.5 μg/ml) for 12 h to prepare total RNA. The total RNA (0.5 μg) was used for analysis by SuperScript RT-PCR system (Invitrogen) according to the manufacturer's instructions. The oligonucleotide primers used were IL-13-s (5′-[…]-3′ (SEQ ID NO: 6); sense) and IL-13-as (5′-[…]-3′ (SEQ ID NO: 7); antisense) for human IL-13, β-actin-s (5′-[…]-3′ (SEQ ID NO: 8); sense) and β-actin-as (5′-[…]-3′ (SEQ ID NO: 9); antisense) for human β-actin, and COX-2-s (5′-[…]-3′ (SEQ ID NO: 10); sense) and COX-2-as (5′-[…]-3′ (SEQ ID NO: 11); antisense) for human COX-2. For each PCR amplification, 1 μl of cDNA was used in a 50 μl reaction. Reverse transcription-PCR (RT-PCR) for β-actin (25 cycles) was used as an internal control for mRNA abundance. For IL-13 and COX-2 genes, the number of cycles ranged from 25 to 45. […] Samples were normalized based on equivalent expression of β-actin.

In series [1] the test system is adhesion between human vascular endothelial cells and monocytic leukocyte U937 cells. As to the kind of experiment: Adherence assay of U937 cells to endothelial monolayers. It counts as cell-based. Conditions: HUVEC, 24 h. The procedure: HUVEC (2.5×10^4 cells/cm^2) were cultured in 12-well plates. After 24 h, confluent monolayers were used for adherence assays. Monolayers were preincubated in EGM-2 containing 2% FBS, 0 or 10 ng/ml TNF-α, 0 or 10 ng/ml IL-13 and 0 or 10 μM cPGI with or without anti-IL-13 monoclonal antibody (0.5 μg/ml) at 37° C. for 0 to 24 h. Human monocyte leukocyte U937 cells were cultured in RPMI 1640 (Gibco-Invitrogen) containing 10% FBS, 100 U/ml penicillin and […] streptomycin , labeled with 2.5 μM calcein-AM (Molecular Probes, Eugene, Oreg.) at room temperature for 45 min, washed and resuspended in serum-free EGM-2. The calcein-labeled U937 cells (8×10^4 cells/well) were added to pretreated endothelial cells and incubated with cPGI (0, 10 μM), recombinant IL-13 (0, 10 ng/ml) and anti-IL-13 monoclonal antibody (0, 0.5 μg/ml). U937 cells were allowed to adhere to pretreated endothelial cells for 30 min at 37° C. Adherence was assessed with a fluorescence image analyzer (FLA-2000; Fujifilm, Tokyo, Japan). Plates were scanned before and after washing for total and adherent cells, respectively, and relative adherence was calculated (fold of control).

Another series has as its system IL-13. As to the kind of experiment: IL-13 ELISA of culture medium of human vascular endothelial cells. It counts as cell-based. Conditions: HUVEC treated with TNF-α 0-10 ng/ml, 24 h, FIG. 4C. The method, then:
(§1) Human vascular endothelial cells (1.2×10^4 cells/cm^2) were cultured in EGM-2 containing 2% FBS and several concentrations of cPGI with or without TNF-α for 24 h. Incubation media were collected and stored at −80° C. before assay. Amounts of IL-13 were measured with human IL-13 ELISA system (Amersham Pharmacia Biotech, Buckinghamshire, UK) and amounts of PGI2 were measured as the amounts of 6-keto-PGI1α, a stable metabolite of PGI2, with 6-keto-PGI1α ELISA kit (Cayman Chemical Co., Ann Arbor, Mich.) according to the manufacturers' instructions.
(§2) siRNA duplexes with the following sense and antisense sequences were made: PGIS1, 5′-[…]-3′ (SEQ ID NO: 12; sense) and 5′-[…]-3′ (SEQ ID NO: 13; antisense); PGIS2, 5′-[…]-3′ (SEQ ID NO: 14; sense) and 5′-[…]-3′ (SEQ ID NO: 15; antisense); PGIS3, 5′-[…]-3′ (SEQ ID NO: 16; sense) and 5′-[…] (SEQ ID NO: 17; antisense); and PGIS4, 5′-[…]-3′ (SEQ ID NO:, 18; sense) and 5′-[…]-3′ (SEQ ID NO: 19; antisense). siRNAs were synthesized and annealed by Dharmacon Research Inc. (Lafayette, CO). Control non-silencing siRNA, a duplex of sense (5′-UUCUCCGAACGUGUCACGUdTdT-3′; SEQ ID NO: 20) and antisense (5′-ACGUGACACGUUCGGAGAAdTdT-3′; SEQ ID NO: 21) sequences, was purchase from Qiagen (Valencia, Calif.). The cells were initially transfected with 200 pmol per well of the annealed RNA mixture or the same amount of control siRNA using LipofectAMINE2000 (Invitrogen), and 12 h later secondly transfected with the same amount of siRNAs using HVJ-liposome transfection kit (GenomeONE; Ishihara Sangyo, Osaka, Japan) according to the manufacturers' instructions. The cells were retransfected with the siRNAs every 3 days using LipofectAMINE2000 and HVJ-liposome, and used for analyses 10 days after transfection. Microsomal fractions of the cells were prepared and analyzed by immunoblotting with anti-PGIS P4 polyclonal antibody as described previously (Hatae et al., J. Biol. Chem. (2001) 276: 46260-7). The cells treated with siRNAs for 10 days were cultured in fresh EGM-2 containing 2% FBS and TNF-α (0, 10 ng/ml). with or without cPGI (10 μM) for 24 h. The incubation media were collected, and amounts of 6-keto-PGI1α or IL-13 were measured with ELISA kit.

A further series has as its system PPRE (PPARδ activation). The experiment in a line: PPREx3-luciferase reporter assay. It counts as cell-based, human. Conditions: HUVEC treated with TNF-α 0-10 ng/ml, 24 h, FIG. 4B. The method, then:
Primary cultured human umbilical vein endothelial cells (HUVEC) and human aortic endothelial cells (HAEC) were obtained from Kurabo Co. Ltd. (Tokyo, Japan) and were cultured in EGM-2 growth medium supplemented with 2% fetal bovine serum (FBS) and a mixture of growth factors according to the supplier's instructions. Total RNA from the cells in culture was prepared with Isogen (Nippon Gene, Tokyo, Japan). Human embryonic kidney HEK-293 cells were cultured in DMEM containing 10% FBS, 2 mM L-glutamine, 100 U/ml penicillin and […] streptomycin as described previously (Hatae et al., J. Biol. Chem. (2001) 276: 46260-7). […] HEK-293 cells were transfected with DNA using lipofectAMINE (Invitrogen, Carlsbad, Calif.) as described previously (Hatae et al., J. Biol. Chem. (2001) 276: 46260-7). Human vascular endothelial cells were transfected with TransIT LT-1 (PanVera Co., Madison, Wis.). Transfections were performed at a ratio of 1 μg of DNA to 3.0 μl of the reagents, and cells were incubated in serum-free EGM-2 at 37° C. for 5 h. Subsequently, cells were grown in fresh EGM-2 containing 2% FBS and a mixture of growth factors for 12 h before analysis. For reporter assay, human vascular endothelial cells (1.2×10^4 cells/cm^2) were cotransfected with 0.2 μg of the PPREx3-luciferase reporter vector and 0.1 μg of β-galactosidase expression vector by use of TransIT LT-1. After 17 h of transfection, cells were washed with PBS, incubated in EGM-2 containing 2% FBS and cPGI (0-100 μM) for 24 h at 37° C., and subjected to luciferase assay as described previously (Hatae et al., J. Biol. Chem. (2001) 276: 46260-7). The luciferase activity of the extract was normalized to β-galactosidase activity.
On the technique in general: A reporter such as luciferase makes a cellular process visible.

Series [2] relates to endogenous PGI2 production. As to the kind of experiment: PGI2 assay (6-keto-PGF1α ELISA). It counts as cell-based, human. Conditions: HUVEC, TNF-α 0, 0.1, 1 or 10 ng/ml, 24 h, FIG. 4A. The method, then: as §1
siRNA duplexes with the following sense and antisense sequences were made: PGIS1, 5′-[…]-3′ (SEQ ID NO: 12; sense) and 5′-[…]-3′ (SEQ ID NO: 13; antisense); PGIS2, 5′-[…]-3′ (SEQ ID NO: 14; sense) and 5′-[…]-3′ (SEQ ID NO: 15; antisense); PGIS3, 5′-[…]-3′ (SEQ ID NO: 16; sense) and 5′-[…] (SEQ ID NO: 17; antisense); and PGIS4, 5′-[…]-3′ (SEQ ID NO:, 18; sense) and 5′-[…]-3′ (SEQ ID NO: 19; antisense). siRNAs were synthesized and annealed by Dharmacon Research Inc. (Lafayette, CO). […] Microsomal fractions of the cells were prepared and analyzed by immunoblotting with anti-PGIS P4 polyclonal antibody as described previously (Hatae et al., J. Biol. Chem. (2001) 276: 46260-7). […] The incubation media were collected, and amounts of 6-keto-PGI1α or IL-13 were measured with ELISA kit.

The test system of a further series is PGIS. As to the kind of experiment: RNAi silencing of PGIS, immunoblotting with anti-PGIS antibody. Conditions: HUVEC, siRNA treatment for 10 days, FIG. 6A. It counts as cell-based, human.
Excerpt: as §2, with “The cells were retransfected with the siRNAs every 3 days using LipofectAMINE2000 and HVJ-liposome, and used for analyses 10 days after transfection.” left out, “The cells treated with siRNAs for 10 days were cultured in fresh EGM-2 containing 2% FBS and TNF-α (0, 10 ng/ml). with or without cPGI (10 μM) for 24 h.” left out
A general note: In western blotting, separated proteins are transferred to a membrane and probed.

Regarding `CCCCC[C@H](O)/C=C/[C@@H]1[C@H]2C/C(=C/CCCC(=O)O)O[C@H]2C[C@H]1O` [PGI2, prostacyclin], in the series with HEK-293 cells, the “Differential expression, IL-13 (NM_002188)” value is “+11.0”; the “Differential expression, Sjogren syndrome antigen (BF897247)” value was “+2.8”; the “Differential expression, aldehyde dehydrogenase 1 family, member A1 (AI050734)” value was “+2.5”; the “Differential expression, butyrophilin, subfamily 3, member A2 (AA482308)” value is listed as “+2.7”. In the series on HEK-293 cells, the “Differential expression, isopentenyl-diphosphate delta isomerase (BF698441)” value is “+2.9” and the “Differential expression, mal T-cell differentiation protein (NM_022439)” value is “+7.0 mal”.

Regarding “IL-1: Recombinant human IL-1β, proinflammatory cytokine”, the “expression of COX-2 mRNA” value in the series on COX-2 gene is “induced”.

With IL-13: recombinant human IL-13, the “TNF-α-induced monocytic leukocyte-endothelial cell adhesion” value in series [1] (TNF-α 10 ng/ml plus antibody 0.5 μg/ml, cPGI 10 μM or IL-13 10 ng/ml, FIG. 4D lanes 3-5) was “inhibited”.

For the compound TNF-α, the “production of IL-13” value with IL-13 is on record as “increased”. Besides, the “relative luciferase activity of reporter vector containing PPRE” value in the series with PPRE (PPARδ activation) is “increased”. Moreover, the “endogenous PGI2 production” value in series [2] is “significantly induced”. In series [1] (TNF-α 10 ng/ml alone, FIG. 4D lanes 1 and 2), the “adhesion between U937 cells and endothelial cells” value is recorded as “increase adhesion”. In the series with COX-2 gene, the “expression of COX-2 mRNA” value is listed as “induced”.

Take “control siRNA: Control non-silencing siRNA duplex (SEQ ID NO: 20, 21) from Qiagen (chain 1 UUCUCCGAACGUGUCACGUNN; chain 2 ACGUGACACGUUCGGAGAANN; listed as RNA, chemistry not fully specified)”: in the series on PGIS, the “endogenous expression of PGIS (Western analysis)” value is on record as “no effect”.
